Results reported in article PMC4134498 (British Journal of Cancer, 2014).
“Also recorded” adds a separate entry of the source. Marks after values point to notes of the source that are not given here.

How the values were obtained:
[1] = tested on: patients with advanced solid tumours; experiment: Phase I study of olaparib capsules plus PLD; format: in vivo
[2] = ref Fong et al, 2009; cited from earlier work
[3] = Plasma pharmacokinetics of olaparib alone and with PLD; format: in vivo, patients; conditions: for AUC(0-t): olaparib AUC0–10 h, Day 1 alone; for AUC(0-t) / Cmax: mean±s.d.; for Cmax: olaparib Cmax, Day 2+PLD
[4] = all olaparib cohorts + PLD 40 mg m^−2, Total (n=44)
[5] = olaparib 50 mg bid 7 day + PLD 40 mg m^−2 (n=3)
[6] = olaparib 100 mg bid 7 day + PLD 40 mg m^−2 (n=3)
[7] = olaparib 100 mg bid 28 day + PLD 40 mg m^−2 (n=4)
[8] = olaparib 200 mg bid 7 day + PLD 40 mg m^−2 (n=3)
[9] = olaparib 200 mg bid 28 day + PLD 40 mg m^−2 (n=7)
[10] = olaparib 400 mg bid 7 day + PLD 40 mg m^−2 (n=12)
[11] = olaparib 400 mg bid 28 day + PLD 40 mg m^−2 (n=12)
[12] = olaparib + PLD, all cohorts (n=2)
[13] = olaparib + PLD, all cohorts, n=44

Question: What does the source list for `O=C(c1cc(Cc2n[nH]c(=O)c3ccccc23)ccc1F)N1CCN(C(=O)C2CC2)CC1` [olaparib]?
Answer: Anorexia, patients with grade ⩾3 AE [1, 4]: 2 (5) n (%); Anorexia, patients with treatment-related AE [1, 4]: 12 (27) n (%); Asthenia, patients with grade ⩾3 AE [1, 4]: 1 (2) n (%); Asthenia, patients with treatment-related AE [1, 4]: 21 (48) n (%); Decreased neutrophil count, patients with grade ⩾3 AE [1, 4]: 9 (20) n (%); Decreased neutrophil count, patients with treatment-related AE [1, 4]: 13 (30) n (%); Nausea, patients with grade ⩾3 AE [1, 4]: 5 (11) n (%); Nausea, patients with treatment-related AE [1, 4]: 28 (64) n (%); PPES, patients with grade ⩾3 AE [1, 4]: 1 (2) n (%); PPES, patients with treatment-related AE [1, 4]: 11 (25) n (%); Stomatitis, patients with grade ⩾3 AE [1, 4]: 7 (16) n (%); Stomatitis, patients with treatment-related AE [1, 4]: 32 (73) n (%); Vomiting, patients with grade ⩾3 AE [1, 4]: 1 (2) n (%); Vomiting, patients with treatment-related AE [1, 4]: 13 (30) n (%); Asthenia, patients with treatment-related AE [1, 5]: 2 n; Decreased neutrophil count, patients with grade ⩾3 AE [1, 5]: 2 n; Decreased neutrophil count, patients with treatment-related AE [1, 5]: 2 n; Nausea, patients with treatment-related AE [1, 5]: 3 n; Stomatitis, patients with treatment-related AE [1, 5]: 3 ^b n; Asthenia, patients with treatment-related AE [1, 6]: 1 n; Decreased neutrophil count, patients with grade ⩾3 AE [1, 6]: 3 n; Decreased neutrophil count, patients with treatment-related AE [1, 6]: 3 n; Nausea, patients with grade ⩾3 AE [1, 6]: 1 n; Nausea, patients with treatment-related AE [1, 6]: 2 n; Stomatitis, patients with grade ⩾3 AE [1, 6]: 2 ^c n; Stomatitis, patients with treatment-related AE [1, 6]: 3 n; Vomiting, patients with treatment-related AE [1, 6]: 1 n; Anorexia, patients with grade ⩾3 AE [1, 7]: 1 n; Anorexia, patients with treatment-related AE [1, 7]: 1 n; Asthenia, patients with treatment-related AE [1, 7]: 2 n; Decreased neutrophil count, patients with grade ⩾3 AE [1, 7]: 1 n; Decreased neutrophil count, patients with treatment-related AE [1, 7]: 2 n; Nausea, patients with treatment-related AE [1, 7]: 2 n; Stomatitis, patients with treatment-related AE [1, 7]: 2 n; Asthenia, patients with treatment-related AE [1, 8]: 2 n; Decreased neutrophil count, patients with treatment-related AE [1, 8]: 1 n; Nausea, patients with treatment-related AE [1, 8]: 2 n; PPES, patients with treatment-related AE [1, 8]: 1 n; Stomatitis, patients with treatment-related AE [1, 8]: 2 n; Anorexia, patients with grade ⩾3 AE [1, 9]: 1 n; Anorexia, patients with treatment-related AE [1, 9]: 3 n; Asthenia, patients with treatment-related AE [1, 9]: 2 n; Decreased neutrophil count, patients with grade ⩾3 AE [1, 9]: 1 n; Decreased neutrophil count, patients with treatment-related AE [1, 9]: 1 n; Nausea, patients with treatment-related AE [1, 9]: 3 n; PPES, patients with treatment-related AE [1, 9]: 2 n; Stomatitis, patients with grade ⩾3 AE [1, 9]: 1 n; Stomatitis, patients with treatment-related AE [1, 9]: 5 n; Vomiting, patients with treatment-related AE [1, 9]: 3 n; Anorexia, patients with treatment-related AE [1, 10]: 4 n; Asthenia, patients with grade ⩾3 AE [1, 10]: 1 n; Asthenia, patients with treatment-related AE [1, 10]: 6 n; Decreased neutrophil count, patients with grade ⩾3 AE [1, 10]: 1 n; Decreased neutrophil count, patients with treatment-related AE [1, 10]: 2 n; Nausea, patients with grade ⩾3 AE [1, 10]: 4 n; Nausea, patients with treatment-related AE [1, 10]: 8 n; PPES, patients with treatment-related AE [1, 10]: 4 n; Stomatitis, patients with grade ⩾3 AE [1, 10]: 2 n; Stomatitis, patients with treatment-related AE [1, 10]: 6 n; Vomiting, patients with grade ⩾3 AE [1, 10]: 1 n; Vomiting, patients with treatment-related AE [1, 10]: 6 n; Anorexia, patients with treatment-related AE [1, 11]: 4 n; Asthenia, patients with treatment-related AE [1, 11]: 6 n; Decreased neutrophil count, patients with grade ⩾3 AE [1, 11]: 1 n; Decreased neutrophil count, patients with treatment-related AE [1, 11]: 2 n; Nausea, patients with treatment-related AE [1, 11]: 8 n; PPES, patients with grade ⩾3 AE [1, 11]: 1 n; PPES, patients with treatment-related AE [1, 11]: 4 n; Stomatitis, patients with grade ⩾3 AE [1, 11]: 2 n; Stomatitis, patients with treatment-related AE [1, 11]: 11 n; Vomiting, patients with treatment-related AE [1, 11]: 3 n; patients with alterations in neutrophil count ([1]; olaparib + PLD, all cohorts): 30%; Grade ⩾3 haematologic alterations: haemoglobin [1, 12]: 5%; Grade ⩾3 haematologic alterations: white blood cells [1, 12]: 5%; Grade ⩾3 haematologic alterations: platelets ([1]; olaparib + PLD, all cohorts (n=3)): 7%; alterations in neutrophil count reported as AEs [1, 13]: 13 n; overall incidence of CTCAE grade ⩾3 events [1, 13]: 61%; patients discontinued/withdrawn because of treatment-related AEs [1, 13]: seven; patients who died during the study [1, 13]: Five; patients with treatment-related serious AEs [1, 13]: five; patients with serious AEs ([1]; olaparib + PLD, all cohorts, n=44 (12 patients)): 27%; patients with serious AEs of pneumonitis ([1]; olaparib + PLD, 100 mg 28-day, 200 mg 28-day and 400 mg 7-day cohorts): three; MTD of olaparib with PLD ([1]; up to continuous olaparib 400 mg bid + PLD 40 mg m^−2): not reached; also recorded: could not be determined; MTD of olaparib monotherapy (capsule formulation) [2]: 400 mg twice daily (bid); Tmax ([3]; human, plasma, oral): 2.1 h; AUC(0-t) ([3]; human, plasma, oral, 50 mg, olaparib 50 mg, n=3): 8700 ± 5800 ng·h/mL; AUC(0-t) ([3]; human, plasma, oral, 400 mg, olaparib 400 mg bid, n=11): 25900 ± 9000 ng·h/mL; Cmax ([3]; human, plasma, oral, olaparib 50 mg bid): 1400 ± 700 ng/mL; Cmax ([3]; human, plasma, oral, olaparib 100 mg bid): 2200 ± 1000 ng/mL; PK interference between olaparib and PLD ([3]; in vivo): No major pharmacokinetic interference; also recorded: minor
